A value given as a limit tells only on which side of the number the result lay.

For experiment [1], the target named is T1, full length recombinant Pim-2 protein (Homo sapiens, UniProt Q9P1W9).
T1 construct: by full length recombinant Pim-1, Pim-2, or Pim-3 protein; hexahistidine tag followed by a thrombin cleavage site (N); made in house; host or cells: Sf9 (baculovirus) or E. coli (pET28)
The experiment is described as follows: Pim-2 enzyme assay (HTRF, phosphorylation of biotinylated-BAD (S112) peptide). In kind it is biochemical. To be noted: read-out: Pim2_IC50. From the text:
(§1) These cDNAs were used as templates in PCR reactions to produce full-length DNA clones of the PIMs. […] PCR products were digested with […] and EcoRI for Pim-1 and BamHI and EcoRI for Pim-2 and ligated into a modified baculovirus transfer vector (pFastBac1) cleaved with BamHI and EcoRI. For bacterial expression, the same cleaved PCR products encoding Pim-1 or Pim-2 were ligated into a modified E. coli expression vector pET28(a) cleaved with BamHI and EcoRI Amino-terminal hexahistidine tags followed by a thrombin cleavage site were previously added to the vectors using standard methods of molecular biology. Recombinant baculoviruses expressing Pim-1 or Pim-2 were made using standard methods (Fastbac manual, Invitrogen, Carlsbad, Calif.). Infection of Sf9 cells was done at an m.o.i. of greater than 5 for 24-48 h. Cells were harvested by centrifugation and frozen at −80 C. For E. coli expression, cells carrying pET28-His6-Th-Pim-1 or pET28-His6-Th-Pim-2 were picked from a single colony and grown o/n in LB media. The o/n culture was used to inoculate a 2 liter flask with 500 mL media. This was grown o/n and used to inoculate 15-20 liters of Terrific Broth in a New Brunswick Scientific fermentor. The E. coli were grown at 37° C. to and OD600>1.6. The temperature was dropped to 18° C. and o/n expression was induced with 0.5 mM IPTG. Cells were harvested by centrifugation and frozen at −80° C.
(§2) This step was repeated 3× and the resin was transferred to a 2.5 cm glass column. Ten column volumes of wash buffer (0.05 M HEPES, pH 8.0, 0.1 M NaCl, 0.01 M 2-mercaptoethanol, 10% (w/v) glycerol) were applied to the resin followed by 10 column volumes of elution buffer (0.05 M HEPES, pH 8.0, 0.25 M NaCl, 0.01 M 2-mercaptoethanol, 10% (w/v) glycerol, 0.1 M imidazole). Fractions were analyzed by SDS-PAGE and those containing the protein of interest were pooled and concentrated. The concentrated protein was applied to an Amersham Superdex 75 (XK 26/60) column equilibrated in 0.025 M Tris-HCl, pH 7.5, 0.1 M NaCl, 0.01 M 2-mercaptoethanol, 10% (w/v) glycerol. […] Fractions containing the monomeric protein of interest were pooled, concentrated to ˜2 mg/mL, and stored at −80° C.
(§3) The phosphorylation of biotinylated-BAD (S112) peptide by full length recombinant Pim-1, Pim-2, or Pim-3 protein was detected with streptavidin:Allophycocyanin (APC) conjugate and a europium (Eu) labeled antibody directed against phosphorylated-BAD (S112). […] The fluorescence is directly proportional to the amount of phosphorylated BAD peptide present in the reaction.
(§4) A reference compound was included on each assay plate in order to validate that plate; on one plate of every assay run, two additional reference compounds were included.
(§5) The final buffer conditions were as follows: 60 mM Hepes, pH 7.0, 0.05% BSA, 2 mM DTT. […] The reaction was stopped by the addition of 3 mM EDTA, and fluorescence was measured by an HTRF® Rubystar microplate reader. For each plate, percent of control (POC) values were calculated for each well. Values for the IC50 IP were estimated using a standard 4-parameter logistic model.
For orientation: Time-resolved FRET reads energy transfer from a long-lived donor to a nearby acceptor.

The target of experiment [2] is T2, full length recombinant Pim-1 protein (Homo sapiens, UniProt P11309).
T2 construct: by full length recombinant Pim-1, Pim-2, or Pim-3 protein; hexahistidine tag followed by a thrombin cleavage site (N); made in house; host or cells: Sf9 (baculovirus) or E. coli (pET28)
T2 sequence (P11309 whole entry): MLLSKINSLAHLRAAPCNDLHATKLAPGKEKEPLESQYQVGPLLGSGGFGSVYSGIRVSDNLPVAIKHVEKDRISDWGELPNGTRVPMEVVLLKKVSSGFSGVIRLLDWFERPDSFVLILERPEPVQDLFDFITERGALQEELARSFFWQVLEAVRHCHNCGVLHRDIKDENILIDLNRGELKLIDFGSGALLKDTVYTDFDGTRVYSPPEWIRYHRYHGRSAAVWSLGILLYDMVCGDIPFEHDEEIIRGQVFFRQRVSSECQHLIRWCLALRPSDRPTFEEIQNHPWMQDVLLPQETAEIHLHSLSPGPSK
As to the kind of experiment: Pim-1 enzyme assay (HTRF, phosphorylation of biotinylated-BAD (S112) peptide). In kind it is biochemical. As to conditions: read-out: Pim_1_IC50.
Source text: as §1, §2, §3, §4, §5

T1 sequence (Q9P1W9 whole entry): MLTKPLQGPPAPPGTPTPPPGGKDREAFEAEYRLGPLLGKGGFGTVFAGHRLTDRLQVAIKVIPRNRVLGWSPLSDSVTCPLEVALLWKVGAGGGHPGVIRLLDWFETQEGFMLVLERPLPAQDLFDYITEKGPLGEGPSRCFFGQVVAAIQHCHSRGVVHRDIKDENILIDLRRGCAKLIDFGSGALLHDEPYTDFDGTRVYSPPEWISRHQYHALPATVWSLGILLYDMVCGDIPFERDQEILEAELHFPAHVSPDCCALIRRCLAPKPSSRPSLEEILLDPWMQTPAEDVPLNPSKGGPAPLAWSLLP

For `CC(C)Oc1cncc(-c2n[nH]c3ccc(-c4nccc(N5CCOC[C@@H]5C)n4)cc23)n1` [Example 380], the IC50 is > 1000 nM in experiment [1] and 67 nM in experiment [2].
Turning to `COc1cncc(-c2n[nH]c3ccc(-c4nccc(NC5CC5)n4)cc23)n1` [Example 382], the IC50 in experiment [1] was 335 nM; in experiment [2], 50 nM.
For `FCCOc1cncc(-c2n[nH]c3ccc(-c4nccc(C5CC5)n4)cc23)n1` [Example 385] the same measures were 457 nM and 56 nM.
The matching figures for `CC(C)Oc1cncc(-c2n[nH]c3ccc(-c4cnn(C(C)C)c4)cc23)n1` [Example 387]: 230 nM and 93 nM.
The matching figures for `COc1cncc(-c2n[nH]c3ccc(-c4cnn(C(C)C)c4)cc23)n1` [Example 388]: 124 nM and 116 nM.
As for `O=C(NC1CC1)c1ccc(F)c(-c2ccc3[nH]nc(-c4cncc(OCCF)n4)c3c2)c1` [Example 389], the IC50 in experiment [1] was 200 nM; in experiment [2], 173 nM.
For `NC(=O)c1ccc(F)c(-c2ccc3[nH]nc(-c4cncc(OCCF)n4)c3c2)c1` [Example 390] the same measures were 241 nM and 119 nM.
With `c1cc2[nH]nc(-c3cncc(O[C@@H]4CNCCC45CC5)n3)c2cc1N1CCOCC1` [Example 399], the IC50 in experiment [1] and in experiment [2] was > 1000 nM each time.
`C[C@@H]1CN(c2ccc3[nH]nc(-c4cncc(O[C@H]5CNCCC56CC6)n4)c3c2)CCO1` [Example 401]: the IC50 was 58 nM in experiment [1] and 30 nM in experiment [2].
For `C[C@H]1COCCN1c1ccc2[nH]nc(-c3cncc(O[C@H]4CNCCC45CC5)n3)c2c1` [Example 402] the same measures were 39 nM and 30 nM.
The matching figures for `C[C@@H]1COCCN1c1ccc2[nH]nc(-c3cncc(O[C@H]4CNCCC45CC5)n3)c2c1` [Example 403]: 58 nM and 70 nM.
The matching figures for `O=C1COCCN1c1ccc2[nH]nc(-c3cncc(O[C@H]4CNCCC45CC5)n3)c2c1` [Example 405]: 447 nM and 159 nM.
Consider `Brc1ccc2[nH]nc(-c3cncc(O[C@H]4CNCCC45CC5)n3)c2c1` [Example 422], for which the IC50 came out at 82 nM in experiment [1] and 22 nM in experiment [2].
The matching figures for `Oc1cncc(-c2n[nH]c3ccc(-c4ccccc4F)cc23)n1` [Example 435]: 629 nM and 322 nM.
The matching figures for `CN1CCC(Oc2cncc(-c3n[nH]c4ccc(-c5c(F)cccc5F)cc34)n2)CC1` [Example 445]: 43 nM and 20 nM.
Consider `O[C@@H]1CN(c2cncc(-c3n[nH]c4ccc(-c5c(F)cccc5F)cc34)n2)C[C@@H]1O` [Example 448], for which the values for the IC50 in experiment [1] and in experiment [2] were 137 nM and 105 nM, respectively.
For the molecule `OC1CN(c2cncc(-c3n[nH]c4ccc(-c5c(F)cccc5F)cc34)n2)CC1O` (centres unmarked) [Example 449], the IC50 in experiment [1] was determined as 639 nM; in experiment [2], 159 nM.
The matching figures for `OC1CN(c2cncc(-c3n[nH]c4ccc(-c5c(F)cccc5F)cc34)n2)CC1O` (centres unmarked) [Example 450]: 453 nM and 159 nM.
With `Nc1ncc(-c2ccc3[nH]nc(-c4cncc(O[C@H]5CNCCC56CC6)n4)c3c2)cn1` [Example 464], the figures for the IC50 in experiment [1] and in experiment [2] were 17 nM and 4 nM, respectively.
Consider `CNC(=O)c1ccc2[nH]nc(-c3cncc(NC4CCNCC4)n3)c2c1` [Example 471], for which the IC50 in experiment [1] was determined as 329 nM; in experiment [2], 171 nM.
For the molecule `COc1cc(N2CCC(N)CC2)nc(-c2n[nH]c3ccc(-c4c(F)cccc4F)cc23)n1` [Example 472], the IC50 is 617 nM in experiment [1] and 112 nM in experiment [2].
For `CNC(=O)c1ccc2[nH]nc(-c3cncc(N[C@@H]4CCCNC4)n3)c2c1` [Example 475] the same measures were 192 nM and 30 nM.
As for `CNC(=O)c1ccc2[nH]nc(-c3cncc(O[C@@H]4CCCNC4)n3)c2c1` [Example 478], the IC50 in experiment [1] was > 1000 nM; in experiment [2], 180 nM.
The matching figures for `COc1cc(N[C@@H]2CCCNC2)nc(-c2c[nH]c3ccc(-c4c(F)cccc4F)cc23)n1` [Example 479]: 77 nM and 112 nM.
The matching figures for `CNC(=O)c1ccc2[nH]nc(-c3cncc(N4CCC(N)CC4)n3)c2c1` [Example 480]: 203 nM and 106 nM.
For `CN(C)C(=O)c1ccc2[nH]nc(-c3ccnc(N[C@@H]4CCCNC4)n3)c2c1` [Example 481] the same measures were 719 nM and 444 nM.
Take `CN(C)C(=O)c1ccc2[nH]nc(-c3cncc(N4CCC(N)CC4)n3)c2c1` [Example 484]: the figures for the IC50 in experiment [1] and in experiment [2] were > 1000 nM and 374 nM, respectively.
For `COC(=O)c1ccc2[nH]nc(-c3nccc(NC4CCNCC4)n3)c2c1` [Example 485] the same measures were 26 nM and 26 nM.
As for `COC(=O)c1ccc2[nH]nc(-c3nccc(N[C@@H]4CCCNC4)n3)c2c1` [Example 486], the IC50 in experiment [1] amounted to 543 nM; in experiment [2] it was 72 nM.
For `CN(C)C(=O)c1ccc2[nH]nc(-c3cncc(NC4CCNCC4)n3)c2c1` [Example 487] the same measures were 217 nM and 159 nM.
`COC(=O)c1ccc2[nH]nc(-c3nccc(N4CCC(N)CC4)n3)c2c1` [Example 488]: the IC50 in experiment [1] stood at 55 nM; in experiment [2], 46 nM.
For `CN(C)c1nc(-c2c[nH]c3ccc(-c4c(F)cccc4F)cc23)cc(=O)[nH]1` [Example 492], the IC50 in experiment [1] is 109 nM; in experiment [2], 46 nM.
For `COc1cc(-c2c[nH]c3ccc(-c4c(F)cccc4F)cc23)nc(O[C@@H]2CCCNC2)n1` [Example 493] the same measures were 653 nM and 834 nM.
For `CN(C)C(=O)c1ccc2[nH]nc(-c3cncc(N[C@@H]4CCCNC4)n3)c2c1` [Example 494], the results for the IC50 in experiment [1] and in experiment [2] were > 1000 nM and 834 nM, respectively.
The matching figures for `CN(C)c1cc(=O)[nH]c(-c2c[nH]c3ccc(-c4c(F)cccc4F)cc23)n1` [Example 496]: > 1000 nM and 159 nM.
For `COC(=O)c1ccc2[nH]nc(-c3ccnc(O[C@@H]4CCCNC4)n3)c2c1` [Example 497] the same measures were 207 nM and 46 nM.
With `COC(=O)c1ccc2[nH]nc(-c3nccc(O[C@@H]4CCCNC4)n3)c2c1` [Example 498], the IC50 was determined as 726 nM in experiment [1] and 70 nM in experiment [2].
For the molecule `CC(C)Nc1cc(=O)[nH]c(-c2c[nH]c3ccc(-c4c(F)cccc4F)cc23)n1` [Example 499], the IC50 in experiment [1] was > 1000 nM; in experiment [2], 364 nM.
The matching figures for `CC(C)Nc1nc(-c2c[nH]c3ccc(-c4c(F)cccc4F)cc23)cc(=O)[nH]1` [Example 500]: 19 nM and 9 nM.
As for `CC1CCCCN1c1nc(-c2ccc3[nH]cc(-c4cncc(O[C@@H]5CCCNC5)n4)c3c2)cs1` (some centres unmarked) [Example 501], the results for the IC50 in experiment [1] and in experiment [2] were 812 nM and 91 nM, respectively.
As to `c1ncc(-c2ccc3[nH]cc(-c4cncc(O[C@@H]5CCCNC5)n4)c3c2)cc1NC1CC1` [Example 502], the figures for the IC50 in experiment [1] and in experiment [2] were 424 nM and 20 nM, respectively.
The matching figures for `Clc1cncc(-c2ccc3[nH]cc(-c4cncc(O[C@@H]5CCCNC5)n4)c3c2)c1` [Example 505]: 225 nM and 29 nM.
For `CC(C)Oc1cncc(-c2ccc3[nH]cc(-c4nnc(N[C@H]5CCNC5)o4)c3c2)n1` [Example 511] the same measures were 480 nM and 98 nM.

The values are drawn from patent US9090593B2, “Bicyclic compounds as Pim inhibitors” (AMGEN INC., priority 2010, dated 2015).
